Measurements taken from US10968266B2, “GIP peptide analogues” (University of Copenhagen, priority 2014, dated 2021).
No end group written: not given here.

How the values were obtained:
human GIP receptor [1] = molecular target: T1, human GIP receptor (Homo sapiens, UniProt P48546); test: cAMP accumulation assay (agonism, antagonism, Schild analysis), COS-7 cells transfected with human GIP receptor (Example 7); type: cell-based; conditions: for Slope of Schild plot: GIP(1-42) dose-response curves with fixed antagonist concentrations
T1 construct: host or cells: COS-7 cells, transient transfection (calcium phosphate precipitation), pCMV-Script vector
T1 sequence (P48546 22-466): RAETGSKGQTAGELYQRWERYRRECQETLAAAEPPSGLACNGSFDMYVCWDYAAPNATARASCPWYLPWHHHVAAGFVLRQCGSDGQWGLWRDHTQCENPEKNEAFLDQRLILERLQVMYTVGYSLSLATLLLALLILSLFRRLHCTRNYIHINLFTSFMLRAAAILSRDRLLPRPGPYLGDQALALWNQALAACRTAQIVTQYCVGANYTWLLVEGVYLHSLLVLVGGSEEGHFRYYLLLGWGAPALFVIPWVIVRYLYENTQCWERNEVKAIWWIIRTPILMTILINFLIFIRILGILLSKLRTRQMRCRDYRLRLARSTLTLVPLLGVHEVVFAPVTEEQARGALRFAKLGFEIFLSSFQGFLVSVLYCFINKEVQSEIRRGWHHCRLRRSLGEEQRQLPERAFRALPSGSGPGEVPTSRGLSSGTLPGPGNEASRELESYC
Description: COS-7 cells were grown in 10% CO2 and at 37° C. in Dulbecco's modified Eagle's medium 1885 supplemented with 10% fetal bovine serum, 2 mM glutamine, 180 units/ml penicillin, and 45 µg/ml streptomycin. Transfection of COS-7 cells was performed using the calcium phosphate precipitation method with chloroquine addition as previously described (Kissow et al., 2012).
Two days after transfection the cells were washed once with HEPES buffered saline (HBS) and incubated with HBS and 0.5 mM 3-isobutyl-1-methylxanthine (IBMX) for 30 minutes at 37° C. […] After ligand incubation, the HitHunter™ cAMP XS assay (an enzyme fragment complementation-based assay, DiscoveRx, Birmingham, United Kingdom) was carried out according to the manufacturer's instructions. All experiments were made in duplicates, and repeated at least three times. Luminescence was measured by Perkin Elmer™ EnVision 2104 Multilabled reader (Skovlunde, Danmark). In brief, the cells were lysed in the wells, the enzyme fragment-cAMP-antibody, an enzyme fragment and the enzyme substrates were added followed by 1 hour incubation at room temperature on shaker tray. The other enzyme fragment was added to the wells and incubated for 4 hours on shaker tray followed by measurements of luminescence. The ligand-induced cAMP competed with the binding of antibody to the first enzyme fragment and left the two fragments to fuse. The enzyme complex hydrolyzed the substrates and yielded luminescence. The number “n” refers to individual experiments with separate transfections although from same cell line.
IC50, EC50, and Kd/Ki values were determined by nonlinear regression. These, as well as maximal binding capacity (Bmax) values and Schild plot analysis were carried out with the GraphPad Prism 6.0 software (GraphPad, San Diego, Calif., USA) and Microsoft Excel™. Statistical analyses (unpaired t-tests) of two parameters were also performed with GraphPad Prism 6.0. The calculations of Bmax and Ki values were based on the formula for one class of binding sites in homologous competition binding studies and the Cheng Prussoffs formula, respectively (DeBlasi et al., 1989). Kd is the dissociation constant determined by homologous receptor binding. […] Schild plots were performed with log (DR-1) (ordinate) and log(antagonist concentration) (abscissa) to estimate the slopes and Ki values (Lazareno and Birdsall, 1993).

human GIP receptor [2] = molecular target: T1, human GIP receptor; test: Competitive binding assay with 125I-labelled GIP radioligands, COS-7 cells transfected with human GIP receptor (Example 7); conditions: for fold change GIP(1-30)NH2 / Competitive binding fold (fold change of GIP(1-30)NH2 affinity): relative to GIP(1-30)NH2; for Competitive binding fold (fold change of GIP(1-30)NH2 affinity): radioligand 125I-GIP(1-42)
Description: Transfection of COS-7 cells was performed using the calcium phosphate precipitation method with chloroquine addition as previously described (Kissow et al., 2012). […] Nonspecific binding was determined as the binding of radioligand to untransfected cells. All determinations were made in duplicates, and all experiments repeated at least three times. The samples were analyzed for radioactivity using a Wallac Wizard 1470 Gamma Counter (GMI Inc., Minnesota, USA). The number “n” refers to individual experiments with separate transfections although from same cell line. IC50, EC50, and Kd/Ki values were determined by nonlinear regression. […] Statistical analyses (unpaired t-tests) of two parameters were also performed with GraphPad Prism 6.0. The calculations of Bmax and Ki values were based on the formula for one class of binding sites in homologous competition binding studies and the Cheng Prussoffs formula, respectively (DeBlasi et al., 1989). Kd is the dissociation constant determined by homologous receptor binding. […] Schild plots were performed with log (DR-1) (ordinate) and log(antagonist concentration) (abscissa) to estimate the slopes and Ki values (Lazareno and Birdsall, 1993).

[3] = inhibition of GIP(1-42) at 50-80% of max receptor activation

In the case of `CC[C@H](C)[C@H](NC(=O)[C@H](CO)NC(=O)[C@H](Cc1ccc(O)cc1)NC(=O)[C@H](CC(=O)O)NC(=O)[C@H](CO)NC(=O)[C@@H](NC(=O)[C@H](Cc1ccccc1)NC(=O)[C@@H](NC(=O)CNC(=O)[C@H](CCC(=O)O)NC(=O)[C@H](C)NC(=O)[C@@H](N)Cc1ccc(O)cc1)[C@@H](C)O)[C@@H](C)CC)C(=O)N[C@@H](C)C(=O)N[C@@H](CCSC)C(=O)N[C@@H](CC(=O)O)C(=O)N[C@@H](CCCCN)C(=O)N[C@H](C(=O)N[C@@H](Cc1c[nH]cn1)C(=O)N[C@@H](CCC(N)=O)C(=O)N[C@@H](CCC(N)=O)C(=O)N[C@@H](CC(=O)O)C(=O)N[C@@H](Cc1ccccc1)C(=O)N[C@H](C(=O)N[C@@H](CC(N)=O)C(=O)N[C@@H](Cc1c[nH]c2ccccc12)C(=O)N[C@@H](CC(C)C)C(=O)N[C@@H](CC(C)C)C(=O)N[C@@H](C)C(=O)N[C@@H](CCC(N)=O)C(=O)N[C@@H](CCCCN)C(N)=O)C(C)C)[C@@H](C)CC` [GIP(1-30)NH2, reference compound], the “Intrinsic agonistic activity in cAMP accumulation” value (shortened to “Intrinsic agonistic activity”) (human GIP receptor [1]; agonist mode) is reported as “full agonist”.

`CC[C@H](C)[C@H](NC(=O)[C@H](CO)NC(=O)[C@H](Cc1ccc(O)cc1)NC(=O)[C@H](CC(=O)O)NC(=O)[C@H](CO)NC(=O)[C@@H](NC(=O)[C@H](Cc1ccccc1)NC(=O)[C@@H](NC(=O)CNC(=O)[C@H](CCC(=O)O)NC(=O)[C@H](C)N)[C@@H](C)O)[C@@H](C)CC)C(=O)N[C@@H](C)C(=O)N[C@@H](CCSC)C(=O)N[C@@H](CC(=O)O)C(=O)N[C@@H](CCCCN)C(=O)N[C@H](C(=O)N[C@@H](Cc1c[nH]cn1)C(=O)N[C@@H](CCC(N)=O)C(=O)N[C@@H](CCC(N)=O)C(=O)N[C@@H](CC(=O)O)C(=O)N[C@@H](Cc1ccccc1)C(=O)N[C@H](C(=O)N[C@@H](CC(N)=O)C(=O)N[C@@H](Cc1c[nH]c2ccccc12)C(=O)N[C@@H](CC(C)C)C(=O)N[C@@H](CC(C)C)C(=O)N[C@@H](C)C(=O)N[C@@H](CCC(N)=O)C(=O)N[C@@H](CCCCN)C(N)=O)C(C)C)[C@@H](C)CC` [GIP(2-30)NH2] was tested, and the IC50 (human GIP receptor [2]; radioligand 125I-GIP(1-30)NH2) was 0.026 µM, the “fold change GIP(1-30)NH2” value (human GIP receptor [2]; radioligand 125I-GIP(1-30)NH2) was 84.3 fold and the “Competitive binding fold (fold change of GIP(1-30)NH2 affinity)” value (human GIP receptor [2]) was 16 fold. The IC50 (human GIP receptor [2]; radioligand 125I-GIP(2-30)NH2) was 0.0027 µM, the “fold change GIP(1-30)NH2” value (human GIP receptor [2]; radioligand 125I-GIP(2-30)NH2) was 10.5 fold and the IC50 (human GIP receptor [2]; radioligand 125I-GIP(3-30)NH2) was 0.0077 µM. The “fold change GIP(1-30)NH2” value (human GIP receptor [2]; radioligand 125I-GIP(3-30)NH2) was 4.6 fold, the “Slope of Schild plot” value (human GIP receptor [1]) was 0.49±0.14 and the “Fold lower agonist potency than GIP(1-30)NH2” value (human GIP receptor [1]; agonist mode) was > 3000 fold. For the same compound, the “Intrinsic agonistic activity” value (human GIP receptor [1]; agonist mode) was “weak partial agonist”, the “log EC50, cAMP accumulation” value (human GIP receptor [1]; agonist mode, given with negative sign) was −8.43±0.33 and the IC50 (human GIP receptor [1]; [3]) was 21.7 nM.

With `CC[C@H](C)[C@H](NC(=O)[C@H](CO)NC(=O)[C@H](Cc1ccc(O)cc1)NC(=O)[C@H](CC(=O)O)NC(=O)[C@H](CO)NC(=O)[C@@H](NC(=O)[C@H](Cc1ccccc1)NC(=O)[C@@H](NC(=O)CN)[C@@H](C)O)[C@@H](C)CC)C(=O)N[C@@H](C)C(=O)N[C@@H](CCSC)C(=O)N[C@@H](CC(=O)O)C(=O)N[C@@H](CCCCN)C(=O)N[C@H](C(=O)N[C@@H](Cc1c[nH]cn1)C(=O)N[C@@H](CCC(N)=O)C(=O)N[C@@H](CCC(N)=O)C(=O)N[C@@H](CC(=O)O)C(=O)N[C@@H](Cc1ccccc1)C(=O)N[C@H](C(=O)N[C@@H](CC(N)=O)C(=O)N[C@@H](Cc1c[nH]c2ccccc12)C(=O)N[C@@H](CC(C)C)C(=O)N[C@@H](CC(C)C)C(=O)N[C@@H](C)C(=O)N[C@@H](CCC(N)=O)C(=O)N[C@@H](CCCCN)C(N)=O)C(C)C)[C@@H](C)CC` [GIP(4-30)NH2] the “Competitive binding fold (fold change of GIP(1-30)NH2 affinity)” value (human GIP receptor [2]) was 24 fold, the “Slope of Schild plot” value (human GIP receptor [1]) was 0.75±0.02 and the IC50 (human GIP receptor [1]; [3]) was 108 nM.

For `CC[C@H](C)[C@H](N)C(=O)N[C@@H](CO)C(=O)N[C@@H](CC(=O)O)C(=O)N[C@@H](Cc1ccc(O)cc1)C(=O)N[C@@H](CO)C(=O)N[C@H](C(=O)N[C@@H](C)C(=O)N[C@@H](CCSC)C(=O)N[C@@H](CC(=O)O)C(=O)N[C@@H](CCCCN)C(=O)N[C@H](C(=O)N[C@@H](Cc1c[nH]cn1)C(=O)N[C@@H](CCC(N)=O)C(=O)N[C@@H](CCC(N)=O)C(=O)N[C@@H](CC(=O)O)C(=O)N[C@@H](Cc1ccccc1)C(=O)N[C@H](C(=O)N[C@@H](CC(N)=O)C(=O)N[C@@H](Cc1c[nH]c2ccccc12)C(=O)N[C@@H](CC(C)C)C(=O)N[C@@H](CC(C)C)C(=O)N[C@@H](C)C(=O)N[C@@H](CCC(N)=O)C(=O)N[C@@H](CCCCN)C(N)=O)C(C)C)[C@@H](C)CC)[C@@H](C)CC` [GIP(7-30)NH2, reference compound], the “Slope of Schild plot” value (human GIP receptor [1]) was 0.17±0.03 and the IC50 (human GIP receptor [1]; [3]) was 137 nM.

In the case of `CC[C@H](C)[C@H](NC(=O)[C@H](CO)NC(=O)[C@H](Cc1ccc(O)cc1)NC(=O)[C@H](CC(=O)O)NC(=O)[C@H](CO)NC(=O)[C@@H](NC(=O)[C@H](Cc1ccccc1)NC(=O)[C@@H](NC(=O)CNC(=O)[C@@H](N)CCC(=O)O)[C@@H](C)O)[C@@H](C)CC)C(=O)N[C@@H](C)C(=O)N[C@@H](CCSC)C(=O)N[C@@H](CC(=O)O)C(=O)N[C@@H](CCCCN)C(=O)N[C@H](C(=O)N[C@@H](Cc1c[nH]cn1)C(=O)N[C@@H](CCC(N)=O)C(=O)N[C@@H](CCC(N)=O)C(=O)N[C@@H](CC(=O)O)C(=O)N[C@@H](Cc1ccccc1)C(=O)N[C@H](C(=O)N[C@@H](CC(N)=O)C(=O)N[C@@H](Cc1c[nH]c2ccccc12)C(=O)N[C@@H](CC(C)C)C(=O)N[C@@H](CC(C)C)C(=O)N[C@@H](C)C(=O)N[C@@H](CCC(N)=O)C(=O)N[C@@H](CCCCN)C(N)=O)C(C)C)[C@@H](C)CC` [hGIP(3-30)], the “Fold shift in the dose-response curve of human GIP(1-42)” value (human GIP receptor [1]; 1 μM antagonist) is reported as 281 fold.

In the case of “DYSIAMDKIHQQDFVNWLLAQK-NH2 [GIP(9-30)NH2]”, the “cAMP accumulation logIC50 ± SEM (antagonism)” value (human GIP receptor [1]; inhibition of GIP(1-42) at 50-80% of max receptor activation, given with negative sign) is reported as −6.35 ± 0.6 and the “Fold lower antagonistic potency (right-shift) compared to GIP(3-30)NH2” value (human GIP receptor [1]; inhibition of submaximal GIP(1-42) activation) is reported as 38 fold.

In the case of “porcine GIP(3-42): Porcine GIP(3-42), arginine in position 18 and serine in position 34; custom synthesized by PolyPeptide Laboratories (EGTFISDYSIAMDKIRQQDFVNWLLAQKGKKSDWKHNITQ) [reference compound]”, the “Antagonism of GIP(1-42)-induced cAMP response (in words)” value (human GIP receptor [1]) is reported as “higher potency compared to human GIP (3-42), yet not as high as human GIP(3-30)NH2” and the “Intrinsic agonistic activity” value (human GIP receptor [1]; agonist mode) is reported as “neither of the GIP(3-42) variants had any intrinsic agonistic activity”.
